Measured values: article PMC12172877, “Reverse prenylation in plants by non‐canonical aromatic prenyltransferases” (The Plant Journal, 2025)
Where two headings read alike, the source gives them in different places.

How the values were obtained:
Experiment in all cases: Michaelis-Menten kinetics, yeast microsomes, HPLC of product […]
HpRPThxa = system: T1, HpRPThxa; format: biochemical, Hypericum perforatum; details: Mg2+, optimum pH 9.0-9.5, 40 °C, read-out: apparent KM
T1 construct: gene RPThxa; full-length, 1173 bp ORF, pESC-URA, yeast INVSc1 microsomes

HsRPThxa-tr = system: T2, HsRPThxa-tr; format: biochemical, Hypericum sampsonii; details: optimum pH 9.0-10.0, 40 °C, read-out: apparent KM
T2 construct: gene RPThxa; lacks the N-terminal 24 residues (transit peptide), yeast microsomes

HsRPThxa = system: T3, HsRPThxa; format: biochemical, Hypericum sampsonii; details: Mg2+, optimum pH 9.0-9.5, 35 °C, read-out: apparent KM
T3 construct: gene RPThxa; full-length, 1176 bp ORF, pESC-URA, yeast INVSc1 microsomes

[1] = formation of hyperixanthone A (C-4 reverse prenylation), co-substrate DMAPP

Compound	Km (HpRPThxa; co-substrate patulone) [µM]	Km (HsRPThxa-tr; co-substrate patulone) [µM]	Km (HsRPThxa; co-substrate patulone) [µM]	Km (HpRPThxa; [1]) [µM]	Km (HsRPThxa-tr; co-substrate DMAPP) [µM]	Km (HsRPThxa; [1]) [µM]
CC(C)=CCOP(=O)(O)OP(=O)(O)O [DMAPP]	260 ± 22.9	30.9 ± 2.58	102 ± 6.35			
CC(C)=CCC1(CC=C(C)C)C(=O)C(O)=Cc2oc3cc(O)cc(O)c3c(=O)c21 [compound 2, patulone]				46 ± 4.43	31.3 ± 4.05	52.4 ± 4.16
